The subject of data set [1] is uridine kinase. The note with it: cited from earlier work.
The subject of data set [2] is uridine kinase. The note with it: cited from earlier work. This is another data set of the same source.
A short description of data set [3]: Characterization of recombinant His-tagged human uridine kinase expressed in E.coli. It is filed as biochemical. The text has this:
The novel human UDK gene has been cloned into an expression vector pET 16b (Novagen) with a His tag at its NH2-terminus. The gene was expressed in E.coli and has been purified to >95% purity by Ni-NTA affinity chromatography.

Where two headings read alike, the source gives them in different places.

As usually defined, the Km is the substrate concentration at which the rate is half of its maximum. As for `O=c1ccn([C@@H]2O[C@H](CO)[C@@H](O)[C@H]2O)c(=O)[nH]1` [uridine], the Km in the data set with uridine kinase [1] (normal ovary) was 11500 µM; in the data set with uridine kinase [1] (ovarian carcinoma), 500 µM; in the data set with uridine kinase [2] (normal rat liver), 5000 µM; in the data set on uridine kinase [2] (rapidly growing hepatoma 3924A) it was 800 µM.

B1: Human Uridine Kinase: novel human UDK gene product expressed in E.coli from pET 16b, purified by Ni-NTA affinity chromatography (protein)
chain: MASAGGEDCESPAPEADRPHQRPFLIGVSGGTASGKSTVCEKIMELLGQNEVEQRQRKVVILSQDRFYKVLTAEQKAKALKGQYNFDHPDAFDNDLMHRTLKNIVEGKTVEVPTYDFVTHSRLPETTVVYPADVVLFEGILVFYSQEIRDMFHLRLFVDTDSDVRLSRRVLRDVRRGRDLEQILTQYTTFVKPAFEEFCLPTKKYADVIIPRGVDNMVAINLIVQHIQDILNGDICKWHRGGSNGRSYKRTFSEPGDHPG
modifications: His tag from pET16b; Human
For B1, in data set [3], the “Optimum pH” value is 9.0. The “Specific Activity” value in data set [3] (purified enzyme, His tag at NH2-terminus) was determined as 678 nmol/min/mg protein. In data set [3] (with the His tag), the enzymatic activity result was “good enzymatic activity”.

The record behind these values is US6579708B1, “Human uridine kinase” (SmithKline Beecham Corporation, priority 2000, dated 2003).
